Data set [1] deals with Beta-secretase 1 (Homo sapiens) (UniProt P56817). In words: Inhibition of human recombinant BACE1 using M-2420 as a substrate at 3 uM […]. For orientation: In Ellman's method for cholinesterases, released thiocholine reacts with DTNB.
The target in data set [2] is T1, Acetylcholinesterase (Homo sapiens, UniProt P22303). Put plainly: Inhibition of human recombinant AChE by Ellman's assay.
The target of data set [3] is T2, Cholinesterase (Homo sapiens, UniProt P06276).
Description: Inhibition of human recombinant BuChE by Ellman's assay
The nature of data set [4]: Cytotoxicity against embryonic chicken primary telencephalon neurons at 25 to 50 uM. Further details: species or system Gallus gallus.
The species entered for data set [5] is Gallus gallus. In words: Reduction in amyloid beta42 secretion in embryonic chicken primary telencephalon neurons. Type of data set: functional.
Data set [6] is filed under the species Gallus gallus. In words: Reduction in amyloid beta40 secretion in embryonic chicken primary telencephalon neurons. It is filed as functional.
The species entered for data set [7] is Gallus gallus. Put plainly: Reduction in amyloid beta38 secretion in embryonic chicken primary telencephalon neurons. It is filed as functional.
The test system of the next data set is HEK293. In words: Cytotoxicity against HEK293 cells assessed as reduction in cell viability up to 10 uM by MTT assay. To be noted: human. It is filed as cell-based. In general terms: Tetrazolium assays rely on reduction of a dye to a coloured formazan, in cell work by metabolically active cells.
In data set [8] the target is T3, Amyloid-beta precursor protein (Homo sapiens, UniProt P05067). In words: Inhibition of amyloid beta (1 to 42) aggregation (unknown origin) at 10 uM by thioflavin T fluorescence method.
T3 sequence (P05067 whole entry): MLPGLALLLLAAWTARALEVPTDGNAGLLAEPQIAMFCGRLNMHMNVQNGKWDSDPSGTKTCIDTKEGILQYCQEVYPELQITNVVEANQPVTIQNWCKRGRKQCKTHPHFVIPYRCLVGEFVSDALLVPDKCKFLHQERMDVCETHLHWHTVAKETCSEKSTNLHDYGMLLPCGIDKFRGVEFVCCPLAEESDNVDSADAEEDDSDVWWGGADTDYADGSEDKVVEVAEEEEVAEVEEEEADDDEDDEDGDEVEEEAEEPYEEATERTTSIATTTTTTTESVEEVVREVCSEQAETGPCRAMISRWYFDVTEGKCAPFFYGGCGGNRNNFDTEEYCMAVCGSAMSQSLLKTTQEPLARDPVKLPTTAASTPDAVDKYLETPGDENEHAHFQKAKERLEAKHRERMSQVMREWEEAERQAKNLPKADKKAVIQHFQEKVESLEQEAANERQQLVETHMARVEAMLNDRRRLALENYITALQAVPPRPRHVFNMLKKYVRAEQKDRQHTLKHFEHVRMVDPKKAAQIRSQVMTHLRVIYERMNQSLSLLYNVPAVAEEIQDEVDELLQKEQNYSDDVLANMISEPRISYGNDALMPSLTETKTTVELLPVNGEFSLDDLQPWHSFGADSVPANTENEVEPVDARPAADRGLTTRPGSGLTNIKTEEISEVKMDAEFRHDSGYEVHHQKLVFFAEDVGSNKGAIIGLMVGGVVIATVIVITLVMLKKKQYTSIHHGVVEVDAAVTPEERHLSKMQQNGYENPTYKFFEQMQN
Data set [9] concerns the target T3, Amyloid-beta precursor protein.
Description: Inhibition of amyloid beta (1 to 42) aggregation (unknown origin) by thioflavin T fluorescence method
For data set [10], the species on record is Homo sapiens. In words: Selectivity ratio of IC50 for human recombinant BuChE to IC50 for human recombinant AChE.
For data set [11], the target named is T2, Cholinesterase. In words: Inhibition of human recombinant BuChE hydrolyzing activity at 67 uM by Ellman's assay.
Data set [12] concerns the target T1, Acetylcholinesterase. Put plainly: Inhibition of human recombinant AChE at 67 uM by Ellman's assay.
Data set [13] concerns the target T2, Cholinesterase. In words: Inhibition of human recombinant BuChE at 67 uM by Ellman's assay.
For data set [14], the species on record is Homo sapiens. In words: Selectivity ratio of IC50 for human recombinant AChE to IC50 for human recombinant BuChE.

Activity calls are given as the source filed them. No cut-off for these calls is given here. Bounds are passed on as bounds.

The inhibition is the change of the read-out against control, counted positive when it falls. As a reminder, the IC50 is the concentration that inhibits the measured activity by half.

T2 sequence (P06276 whole entry): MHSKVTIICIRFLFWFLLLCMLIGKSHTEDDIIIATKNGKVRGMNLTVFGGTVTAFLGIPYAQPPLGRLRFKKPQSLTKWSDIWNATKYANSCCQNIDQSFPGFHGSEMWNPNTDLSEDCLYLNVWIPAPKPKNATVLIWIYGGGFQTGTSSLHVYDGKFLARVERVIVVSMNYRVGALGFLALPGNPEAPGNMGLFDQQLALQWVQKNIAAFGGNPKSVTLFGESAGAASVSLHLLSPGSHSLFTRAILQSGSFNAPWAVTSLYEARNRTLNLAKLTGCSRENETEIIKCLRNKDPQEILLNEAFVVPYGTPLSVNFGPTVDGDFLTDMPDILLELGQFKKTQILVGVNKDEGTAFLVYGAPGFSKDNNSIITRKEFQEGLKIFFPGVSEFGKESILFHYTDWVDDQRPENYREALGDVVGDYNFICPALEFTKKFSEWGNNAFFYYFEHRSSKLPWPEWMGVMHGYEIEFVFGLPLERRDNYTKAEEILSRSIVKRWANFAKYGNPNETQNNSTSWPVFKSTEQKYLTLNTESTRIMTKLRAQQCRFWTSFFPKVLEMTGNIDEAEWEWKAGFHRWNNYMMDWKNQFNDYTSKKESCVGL
T1 sequence (P22303 whole entry): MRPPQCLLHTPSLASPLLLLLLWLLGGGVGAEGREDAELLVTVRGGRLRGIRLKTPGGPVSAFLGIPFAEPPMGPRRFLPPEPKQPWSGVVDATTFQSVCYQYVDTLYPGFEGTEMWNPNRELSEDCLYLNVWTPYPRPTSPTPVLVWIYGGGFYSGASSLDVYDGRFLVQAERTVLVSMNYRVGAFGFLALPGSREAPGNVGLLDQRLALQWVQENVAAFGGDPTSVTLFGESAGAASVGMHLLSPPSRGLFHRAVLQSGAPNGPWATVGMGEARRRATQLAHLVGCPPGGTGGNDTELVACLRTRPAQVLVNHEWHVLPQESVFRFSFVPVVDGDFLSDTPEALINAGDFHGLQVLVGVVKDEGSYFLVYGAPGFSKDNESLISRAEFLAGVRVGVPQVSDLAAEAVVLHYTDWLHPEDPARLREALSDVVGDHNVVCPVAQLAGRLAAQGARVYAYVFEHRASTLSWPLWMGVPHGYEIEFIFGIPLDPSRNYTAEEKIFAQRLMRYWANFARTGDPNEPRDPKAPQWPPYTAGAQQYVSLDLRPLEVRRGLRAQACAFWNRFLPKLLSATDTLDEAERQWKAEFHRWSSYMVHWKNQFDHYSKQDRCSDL
Sequence of Beta-secretase 1 (Homo sapiens) (P56817 whole entry): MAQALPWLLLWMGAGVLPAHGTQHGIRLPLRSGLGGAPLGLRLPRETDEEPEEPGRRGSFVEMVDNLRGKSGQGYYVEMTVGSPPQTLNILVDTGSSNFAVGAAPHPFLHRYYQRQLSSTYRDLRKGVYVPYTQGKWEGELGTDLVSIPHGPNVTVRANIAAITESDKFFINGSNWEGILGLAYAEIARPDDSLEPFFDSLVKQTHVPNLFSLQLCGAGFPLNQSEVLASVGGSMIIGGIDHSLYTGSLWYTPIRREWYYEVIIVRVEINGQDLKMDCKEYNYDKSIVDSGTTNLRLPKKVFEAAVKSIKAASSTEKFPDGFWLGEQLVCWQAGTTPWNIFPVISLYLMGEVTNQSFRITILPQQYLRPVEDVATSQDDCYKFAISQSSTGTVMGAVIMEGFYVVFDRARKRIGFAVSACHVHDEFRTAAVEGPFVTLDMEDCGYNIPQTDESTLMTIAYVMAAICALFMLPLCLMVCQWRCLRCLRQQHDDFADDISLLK

As for `CC(C(=O)NCCCCCCNC1=CC(=O)C(NCCCCCCNC(=O)C(C)c2ccc(-c3ccccc3)c(F)c2)=CC1=O)c1ccc(-c2ccccc2)c(F)c1` (stereo not drawn), the inhibition in data set [1] was 20%. Further, the IC50 on Acetylcholinesterase [2] and against Cholinesterase [3] was more than 20 µM in each case.

In the case of `CC(C(=O)NCCCNCCCNC1=CC(=O)c2ccccc2C1=O)c1ccc(-c2ccccc2)c(F)c1` (stereo not drawn), the inhibition in data set [1] turned out to be 20%; in data set [8], 76.4%. The Activity result in [4] is “Toxic”; with HEK293, “Non-toxic”. Also, the result in the data set filed under Gallus gallus [5], in the data set listed under Gallus gallus [6] and in the data set listed under Gallus gallus [7] was Active. In addition, the 50% inhibitory concentration (IC50) is 107 µM on Acetylcholinesterase [2], 6.88 µM in [9] and 16.4 µM against Cholinesterase [3].

Compound `CCN(CCCCCCNC1=CC(=O)C(NCCCCCCN(CC)Cc2ccccc2OC)=CC1=O)Cc1ccccc1OC` [MEMOQUIN] yielded a half-maximal inhibitory concentration (IC50) in data set [9] of 5.93 µM.

As for `CC(C(=O)NCCCNC1=CC(=O)C(NCCCNC(=O)C(C)c2ccc(-c3ccccc3)c(F)c2)=CC1=O)c1ccc(-c2ccccc2)c(F)c1` (stereo not drawn), the inhibition in [1] came to 20%; in [8], 12.7%. In addition, the IC50 on Acetylcholinesterase [2] was more than 20 µM; against Cholinesterase [3], 116 µM.

As to `COc1ccc2c(c1)c(CC(=O)NCCCNCCCNC1=CC(=O)C(NCCCNCCCNC(=O)Cc3c(C)n(C(=O)c4ccc(Cl)cc4)c4ccc(OC)cc34)=CC1=O)c(C)n2C(=O)c1ccc(Cl)cc1`, the inhibition in data set [1] turned out to be 20%; in data set [8], 80.1%. Also, the IC50 on Acetylcholinesterase [2] came to 10.3 µM; in data set [9] it was 6.11 µM; on Cholinesterase [3] it was 18.7 µM.

For the compound `CC(C)Cc1ccc(C(C)C(=O)NCCCNCCCNC2=CC(=O)C(NCCCNCCCNC(=O)C(C)c3ccc(CC(C)C)cc3)=CC2=O)cc1` (stereo not drawn), the inhibition in data set [1] was 20%; on Cholinesterase [11], 70%; at Acetylcholinesterase [12], 26.3%; at Cholinesterase [13], less than 10%; in data set [8], 82.6%. In addition, the Ratio IC50 in the data set listed under Homo sapiens [10] was 37.5. For the same compound, the figures for the IC50 (at Acetylcholinesterase [2]; in data set [9]; against Cholinesterase [3]) were 0.6 µM, 4.83 µM and 22.5 µM, respectively.

Consider `CC1=C(CC(=O)NCCCNCCCNC2=CC(=O)C(NCCCNCCCNC(=O)CC3=C(C)/C(=C\c4ccc([S+](C)[O-])cc4)c4ccc(F)cc43)=CC2=O)c2cc(F)ccc2/C1=C/c1ccc([S+](C)[O-])cc1` (stereo not drawn), for which the results for the inhibition in data set [1] and in data set [8] were 20% and 55%, respectively. Further, the half-maximal inhibitory concentration (IC50) at Acetylcholinesterase [2] was 9.54 µM; in [9] it was 8.18 µM; at Cholinesterase [3], 14.7 µM.

For the compound `C[C@H](C(=O)NCCCNCCCNC1=CC(=O)C(NCCCNCCCNC(=O)[C@@H](C)c2ccc(-c3ccccc3)c(F)c2)=CC1=O)c1ccc(-c2ccccc2)c(F)c1`, the inhibition is 20% in data set [1] and more than 90% in data set [8]. Further, the Activity result with HEK293 is on record as “Toxic”. The IC50 on Acetylcholinesterase [2] is 2.89 µM; in [9] it was 4.43 µM; against Cholinesterase [3] it was 7.77 µM.

`O=C(Cc1ccccc1Nc1c(Cl)cccc1Cl)NCCCNCCCNC1=CC(=O)C(NCCCNCCCNC(=O)Cc2ccccc2Nc2c(Cl)cccc2Cl)=CC1=O`: the inhibition in data set [1] amounted to 20%; in [8], 74.9%. In the data set filed under Homo sapiens [14], the Ratio IC50 was 42.8. For the same compound, the Activity result with HEK293 is given as “Non-toxic”. Further, the half-maximal inhibitory concentration (IC50) stood at 15.4 µM on Acetylcholinesterase [2], 3.15 µM in data set [9] and 0.36 µM at Cholinesterase [3].

With `CC(C(=O)NCCCNCCCNC1=CC(=O)C(NCCCNCCCNC(=O)C(C)c2ccc(-c3ccccc3)c(F)c2)=CC1=O)c1ccc(-c2ccccc2)c(F)c1` (racemic), the figures for the inhibition in data set [1] and in data set [8] were 20% and more than 90%, respectively.

Regarding `C[C@@H](C(=O)NCCCNCCCNC1=CC(=O)C(NCCCNCCCNC(=O)[C@H](C)c2ccc(-c3ccccc3)c(F)c2)=CC1=O)c1ccc(-c2ccccc2)c(F)c1`, the inhibition came out at 20% in data set [1] and 87.2% in data set [8]. In addition, the Activity result with HEK293 is recorded as “Non-toxic”. Further, the values for the IC50 (at Acetylcholinesterase [2]; in [9]; on Cholinesterase [3]) were 27.8 µM, 4.77 µM and 9.98 µM, respectively.

The values are drawn from ChEMBL document CHEMBL3085683, “Quinones bearing non-steroidal anti-inflammatory fragments as multitarget ligands for Alzheimer's disease” (Bioorg Med Chem Lett, 2013).
